# Measurements published in patent publication US6737383B1, “Herbicidal oxadiazolidines” (priority 1999, dated 2004).
# How the values were obtained:
# [1] = test system: bedstraw; experiment: Test B pre/postemergence bedstraw; assay type: in vivo, Galium aparine
# How it was run: (§1)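 Herbicidal effect was estimated by eye on a ten-point control scale after plants spent twelve to sixteen days in a greenhouse following soil or foliar treatment. Foliar sprays targeted plants at one to four leaves; all doses were formulated in a non-phytotoxic solvent with surfactant.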
# [2] = test system: rice; experiment: Test B flood test rice; assay type: in vivo, Oryza sativa
# How it was run: (§2)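 Each value is a visual injury score relative to controls, with 10 meaning complete control and 0 no effect. Evaluation took place twelve to sixteen days after the 2-leaf-stage plants were treated and kept in the greenhouse.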
# [3] = test system: wild oat; experiment: Test B pre/postemergence wild oat; assay type: in vivo, Avena fatua
# How it was run: as §1
# [4] = test system: corn; experiment: Test B pre/postemergence corn; assay type: in vivo, Zea mays
# How it was run: as §1
# [5] = test system: bamyardgrass; experiment: Test B flood test barnyardgrass; assay type: in vivo, Echinochloa crus-galli
# How it was run: as §2
# [6] = test system: rape; experiment: Test B pre/postemergence rape; assay type: in vivo, Brassica napus
# How it was run: as §1
# [7] = test system: cocklebur; experiment: Test B pre/postemergence cocklebur; assay type: in vivo, Xanthium strumarium
# How it was run: as §1
# [8] = test system: morningglory; experiment: Test B pre/postemergence morningglory; assay type: in vivo, Ipomoea hederacea
# How it was run: as §1
# [9] = test system: crabgrass; experiment: Test B pre/postemergence crabgrass; assay type: in vivo, Digitaria sanguinalis
# How it was run: as §1
# [10] = test system: smallflower flatsedge; experiment: Test B flood test smallflower flatsedge; assay type: in vivo, Cyperus difformis
# How it was run: as §2
# [11] = test system: sugar beet; experiment: Test B pre/postemergence sugar beet; assay type: in vivo, Beta vulgaris
# How it was run: as §1
# [12] = test system: velvetleaf; experiment: Test B pre/postemergence velvetleaf; assay type: in vivo, Abutilon theophrasti
# How it was run: as §1
# [13] = test system: duck salad; experiment: Test B flood test duck salad; assay type: in vivo, Heteranthera limosa
# How it was run: as §2
# [14] = test system: surinam grass; experiment: Test B pre/postemergence surinam grass; assay type: in vivo, Brachiaria decumbens
# How it was run: as §1
# [15] = test system: soybean; experiment: Test B pre/postemergence soybean; assay type: in vivo, Glycine max
# How it was run: as §1
# [16] = test system: pigweed; experiment: Test B pre/postemergence pigweed; assay type: in vivo, Amaranthus retroflexus
# How it was run: as §1
# [17] = Preemergence, Rate 62 g/ha, scale of 0 to 10 where 0 is no effect and 10 is complete control
# [18] = Preemergence, Rate 250 g/ha, scale of 0 to 10 where 0 is no effect and 10 is complete control
# [19] = Preemergence, Rate 500 g/ha, scale of 0 to 10 where 0 is no effect and 10 is complete control
# [20] = Rate 62 g/ha, Postemergence, scale of 0 to 10 where 0 is no effect and 10 is complete control
# [21] = Rate 125 g/ha, Postemergence, scale 0 to 10
# [22] = Rate 125 g/ha, Preemergence, scale of 0 to 10 where 0 is no effect and 10 is complete control
# [23] = Rate 500 g/ha, Postemergence, scale 0 to 10
# [24] = Rate 62 g/ha, headed Pre-emergence (flood test species), scale 0 to 10 (0 no effect, 10 complete control)
# [25] = Rate 125 g/ha, Pre-emergence, flood test species, scale 0 to 10 where 0 is no effect and 10 is complete control
# [26] = Rate 250 g/ha, Pre-emergence, flood-test species, scale 0 to 10, 0 is no effect, 10 is complete control
# [27] = Rate 500 g/ha, Pre-emergence, flood test species, scale 0 to 10 (0 no effect, 10 complete control)
smiles,measurement,setting,value
CC(=O)OCCCCn1c(=O)on(C(=O)N(c2ccc(F)cc2)C(C)C)c1=O [Compound 211],Bedstraw plant response rating,[1]; [17],0
same,Bedstraw plant response rating,[1]; [18],0
same,"Plant response rating, Bedstraw",[1]; [19],10
same,Bedstraw plant response rating,[1]; [20],4
same,Bedstraw plant response rating,[1]; [21],7
same,Bedstraw plant response rating,[1]; [22],0
same,Bedstraw plant response rating,[1]; [23],8
same,Rice plant response rating,[2]; [24],0
same,Rice plant response rating,[2]; [25],0
same,Rice plant response rating,[2]; [26],0
same,Rice plant response rating,[2]; [27],0
same,Wild oats plant response rating,[3]; [17],0
same,Wild oats plant response rating,[3]; [18],5
same,"Plant response rating, Wild oats",[3]; [19],5
same,Wild oats plant response rating,[3]; [20],0
same,Wild oats plant response rating,[3]; [21],0
same,Wild oats plant response rating,[3]; [22],4
same,"Plant response rating (0 to 10; 0 is no effect, 10 is complete control), Wild oats","[3]; Rate 250 g/ha, Postemergence",0
same,Corn plant response rating,[4]; [17],0
same,Corn plant response rating,[4]; [18],0
same,"Plant response rating, Corn",[4]; [19],0
same,Corn plant response rating,[4]; [20],0
same,Corn plant response rating,[4]; [21],0
same,Corn plant response rating,[4]; [22],0
same,"Plant response rating (0 to 10; 0 is no effect, 10 is complete control), Corn","[4]; Rate 250 g/ha, Postemergence",0
same,Corn plant response rating,[4]; [23],0
same,Barnyardgrass plant response rating,[5]; [24],0
same,Barnyardgrass plant response rating,[5]; [25],0
same,Barnyardgrass plant response rating,[5]; [26],0
same,Barnyardgrass plant response rating,[5]; [27],0
same,Rape plant response rating,[6]; [17],0
same,Rape plant response rating,[6]; [18],0
same,"Plant response rating, Rape",[6]; [19],4
same,Rape plant response rating,[6]; [20],2
same,Rape plant response rating,[6]; [21],2
same,Rape plant response rating,[6]; [22],0
same,"Plant response rating (0 to 10; 0 is no effect, 10 is complete control), Rape","[6]; Rate 250 g/ha, Postemergence",2
same,Rape plant response rating,[6]; [23],3
same,Cocklebur plant response rating,[7]; [17],0
same,Cocklebur plant response rating,[7]; [18],0
same,"Plant response rating, Cocklebur",[7]; [19],0
same,Cocklebur plant response rating,[7]; [20],0
same,Cocklebur plant response rating,[7]; [21],0
same,Cocklebur plant response rating,[7]; [22],0
same,"Plant response rating (0 to 10; 0 is no effect, 10 is complete control), Cocklebur","[7]; Rate 250 g/ha, Postemergence",0
same,Cocklebur plant response rating,[7]; [23],0
same,Morningglory plant response rating,[8]; [17],0
same,Morningglory plant response rating,[8]; [18],0
same,"Plant response rating, Morningglory",[8]; [19],0
same,Morningglory plant response rating,[8]; [20],4
same,Morningglory plant response rating,[8]; [21],6
same,Morningglory plant response rating,[8]; [22],0
same,"Plant response rating (0 to 10; 0 is no effect, 10 is complete control), Morningglory","[8]; Rate 250 g/ha, Postemergence",6
same,Morningglory plant response rating,[8]; [23],6
same,Crabgrass plant response rating,[9]; [17],0
same,Crabgrass plant response rating,[9]; [18],3
same,"Plant response rating, Crabgrass",[9]; [19],3
same,Crabgrass plant response rating,[9]; [20],0
same,Crabgrass plant response rating,[9]; [21],0
same,Crabgrass plant response rating,[9]; [22],0
same,"Plant response rating (0 to 10; 0 is no effect, 10 is complete control), Crabgrass","[9]; Rate 250 g/ha, Postemergence",1
same,Crabgrass plant response rating,[9]; [23],3
same,S. Flatsedge plant response rating,[10]; [24],0
same,S. Flatsedge plant response rating,[10]; [25],0
same,S. Flatsedge plant response rating,[10]; [26],0
same,S. Flatsedge plant response rating,[10]; [27],0
same,Sugarbeets plant response rating,[11]; [17],0
same,Sugarbeets plant response rating,[11]; [18],0
same,"Plant response rating, Sugarbeets",[11]; [19],8
same,Sugarbeets plant response rating,[11]; [20],0
same,Sugarbeets plant response rating,[11]; [21],2
same,Sugarbeets plant response rating,[11]; [22],0
same,"Plant response rating (0 to 10; 0 is no effect, 10 is complete control), Sugarbeets","[11]; Rate 250 g/ha, Postemergence",2
same,Sugarbeets plant response rating,[11]; [23],2
same,Velvetleaf plant response rating,[12]; [17],0
same,Velvetleaf plant response rating,[12]; [18],0
same,"Plant response rating, Velvetleaf",[12]; [19],0
same,Velvetleaf plant response rating,[12]; [20],0
same,Velvetleaf plant response rating,[12]; [21],0
same,Velvetleaf plant response rating,[12]; [22],0
same,"Plant response rating (0 to 10; 0 is no effect, 10 is complete control), Velvetleaf","[12]; Rate 250 g/ha, Postemergence",1
same,Ducksalad plant response rating,[13]; [24],0
same,Ducksalad plant response rating,[13]; [25],0
same,Ducksalad plant response rating,[13]; [26],0
same,Ducksalad plant response rating,[13]; [27],0
same,B. signalgrass plant response rating,[14]; [17],0
same,B. signalgrass plant response rating,"[14]; Preemergence, Rate 250 g/ha, scale 0 to 10, 0 is no effect, 10 is complete control",0
same,"Plant response rating, B. signalgrass",[14]; [19],5
same,B. signalgrass plant response rating,[14]; [20],0
same,B. signalgrass plant response rating,"[14]; Rate 125 g/ha, Postemergence, scale 0 (no effect) to 10 (complete control)",0
same,B. signalgrass plant response rating,[14]; [22],0
same,"Plant response rating (0 to 10; 0 is no effect, 10 is complete control), B. signalgrass","[14]; Rate 250 g/ha, Postemergence",0
same,B. signalgrass plant response rating,"[14]; Rate 500 g/ha, Postemergence, scale 0 to 10, 0 no effect, 10 complete control",0
same,Soybean plant response rating,[15]; [17],0
same,Soybean plant response rating,[15]; [18],0
same,"Plant response rating, Soybean",[15]; [19],0
same,Soybean plant response rating,[15]; [20],3
same,Soybean plant response rating,[15]; [21],4
same,Soybean plant response rating,[15]; [22],0
same,"Plant response rating (0 to 10; 0 is no effect, 10 is complete control), Soybean","[15]; Rate 250 g/ha, Postemergence",4
same,Soybean plant response rating,[15]; [23],4
same,Redroot pigweed plant response rating,[16]; [17],0
same,Redroot pigweed plant response rating,[16]; [18],3
same,"Plant response rating, Redroot pigweed",[16]; [19],7
same,Redroot pigweed plant response rating,[16]; [20],2
same,Redroot pigweed plant response rating,[16]; [21],4
same,Redroot pigweed plant response rating,[16]; [22],0
same,"Plant response rating (0 to 10; 0 is no effect, 10 is complete control), Redroot pigweed","[16]; Rate 250 g/ha, Postemergence",4
same,Redroot pigweed plant response rating,[16]; [23],5
